The values below come from patent US20060078890A1, “Methods for identifying parkinson's disease therapeutics” (priority 2004, published 2006).

The subject of one series is PC12-αSyn cells. Kind of series: MPP+ toxicity in α-synuclein overexpressing PC12 cells, cell death by LDH release. It is filed as cell-based. Particulars: for LDH release (cell death) induced by MPP+ toxicity; neuroprotective effect: PC12-αSyn cells pretreated for two hours prior to 1 mM MPP+ for 24 hours, increasing concentrations. On the procedure: A PC12 cell line was transfected to express wild type human α-synuclein using the Tet-Off system (Clontech Laboratories, Palo Alto, Calif.). α-Synuclein expression was suppressed using 1 μg/mL doxycycline (Clontech) in culture media before expression is required. α-Synuclein expressing PC12 cells (PC12-αSyn) were grown in Dulbecco's modified Eagle's medium (DMEM) (Invitrogen, Calsbad, Calif.) supplemented with 10% heat-inactivated horse serum, 5% heat-inactivated fetal calf serum (Hyclone, Logan, Utah), 4 mM L-glutamine, streptomycin, and penicillin G (Fisher, Pittsburgh, Pa.). Cells were maintained at 37° C., in 5% CO2 humid atmosphere.
The effects of various neuroprotective agents were examined in the PC12-αSyn cell line. To determine MPP^+ neurotoxicity in α-synuclein- and naïve PC12 cells, cell death was measured by LDH release assays.
(§1) Cell death will be assessed by quantifying intra- and extracellular lactate dehydrogenase (LDH). The ratio between the amount of LDH released and the amount remaining in the cells produces a measure of cell death. [formula]
(§2) A sample of the medium will be the extracellular LDH sample. Cells were washed with PBS and extracted in cell lysis buffer (50 mM Tris pH 8.0, 150 mM NaCl, 5 mM EDTA, 1% Triton X-100, 10 μg/ml Aprotinin, 25 μg /ml Leupeptin, 10 μg/ml Pepstatin, 1 mM PMSF; all protease inhibitors purchased from Sigma Chemicals, St. Louis, Mo.). The cell homogenate were centrifuged at 4° C. for 3 minutes at 14,000 rpm. The supernatant were taken for intracellular LDH sample. LDH activity will be quantified using an LDH assay kit (Roche, Indianapolis, Ind.).
A general note: LDH leaks from cells whose membrane has failed.

The test system of series [1] is dopaminergic neurons in the substantia nigra. Kind of series: Progressive 6-OHDA lesioned rats, TH immunohistochemistry of striatum and substantia nigra. It counts as in vivo, rat. Particulars: unilateral intrastriatal 6-OHDA, total dose 22.5 μg; up to 28 days. On the procedure: Female Sprague Dawley rats (200-250 g, Charles River, Wilmington, Mass.) receive unilateral intrastriatal stereotaxic injections of 6-OHDA (Sigma, St. Louis, USA) using a 10 μl Hamilton syringe. Intramuscular injections of Acepromazine (3.3 mg/kg, PromAce, Fort Dodge, Iowa) and atropine sulfate (0.2 mg/kg, Phoenix Pharmaceuticals, St. Joseph, Mo.) is given 10 minutes before animals will be anesthetized with ketamine/xylazine (60 mg/kg and 3 mg/kg respectively, i.m.). A concentration of 3.0 μg/μl free base 6-OHDA dissolved in 0.2% ascorbic acid/saline (Sigma) is injected into 3 locations (2.5 μl/site, total dose 22.5 μg) in the right striatum at the following coordinates (calculated from bregma): site 1, AP+1.3, L−2.8, DV−4.5, IB−2.3; site 2, AP+0.2, L−3.0, DV−5.0, IB−2.3; site 3, AP−0.6, L−4.0, DV−5.5, IB−2.3 mm.

Series [2] deals with TH-positive/GIRK2-positive dopaminergic neurons of primary VM culture. Kind of series: MPP+ toxicity in primary ventral mesencephalic (VM) culture, stereological count of TH-positive/GIRK2-positive neurons. It is filed as cell-based, rat. Particulars: for protective effect against MPP+ toxicity on GIRK2-positive/TH-positive neurons: pretreated 2 hours prior to 10 μM MPP+. The method, then:
VMDA cultures were obtained from E15 Sprague-Dawley rat (Charles River, Mass.) ventral mesencephalon (VM). Tissue was mechanically dissociated with a pasteur pipette. The cells were resuspended in DMEM containing heat-inhibited horse serum (10%), glucose (6.0 mg/ml), penicillin, streptomycin, and 2 mM glutamine (Gibco). Cell suspensions containing 4×10^5 cells were plated on a coverslip in a 24-well plate, precoated with a 1:500 diluted solution of polyornithine and fibronectin in 50 mM sodium borate (pH 7.4) overnight.
These cultures contained a mixed cell population having approximately 40% of TH-positive neurons at 5 days in vitro (DIV) with both A9- and A10-like dopaminergic neurons (FIG. 4A). […] The cultures were treated with MPP^+ at day 5 for 48 hours using concentrations ranging from 0.1 to 10 μM. Cells were fixed with paraformaldehyde for immunostaining of TH and GIRK2 48 hours after MPP^+ treatment.
The cultures were pretreated with the polypeptide factors 2 hours prior to 10 μM MPP^+ treatment.
Routine indirect immunofluorescence was performed on 4% paraformaldehyde fixed VM culture. The fixed cells were incubated in a blocking solution consisting of 10% normal donkey serum (Jackson Immuno Research Laboratories Inc, West Grove, Pa.) and 0.1% Triton X-100 (Sigma, St. Louis, Mo.) in 0.1M phosphate buffered saline (PBS) for 1 hour at room temperature before transferring to the primary antibody solution. The primary antibodies were diluted in blocking solution and the cells were incubated overnight at 4° C. The primary antibodies used were raised against tyrosine hydroxylase (sheep anti-TH, 1:300, Pel-Freez Biologicals, Rogers, Ak.) and GIRK2 (rabbit; 1:80, Alomone Laboratories, Jerusalem, Israel). The cells were rinsed three times in 0.1 M PBS for five minutes each before the application of the secondary antibody solution for one hour at room temperature. The secondary antibodies were diluted in 10% normal donkey serum in 0.1M PBS. The secondary antibodies were conjugated to spectrally distinct fluorescent dyes to facilitate color separation (Alexa Fluor 488 conjugated donkey anti-sheep and Alexa Fluor 594 conjugated donkey anti-rabbit, Molecular Probes, Eugene, Oreg.). After rinsing in triplicate for ten minutes each in 0.1 M PBS, the cells were counterstained with 0.0005% Hoechst 33342 (Molecular Probes) in 0.1M Tris buffered saline. The coverslips containing the fixed cells were then rinsed in 0.1M PBS followed by distilled water and mounted onto slides using an aqueous mountant (Gel/Mount, Biømeda Corp., Calif.). Control coverslips immunostained without primary antibody were used to assess specificity of the technique.
Design based stereology was performed by counters blinded to experimental groups on the stained coverslips using an integrated Axioskop 2 microscope (Carl Zeiss, Thornwood, N.Y.) and Stereoinvestigator image capture equipment and software (MicroBrightField, Williston, Vt.). A contour was drawn around each coverslip to identify the area of interest. A physical disector probe was utilized and counting frames were placed in a systematically random manner at approximately 125 sites per coverslip. The resultant coefficient of error for the stereological counts was used to assess precision (p<0.05).

The next series deals with DAN cells. The series is described as follows: MPP+ toxicity in human dopaminergic neuron precursor (DAN) cells, LDH release. It is filed as cell-based. Particulars: for LDH release (cell death) in MPP+ treated DAN cells: pretreated for two hours prior to MPP+ (1 mM).
Text: DAN cells, which have been used to study neurodegeneration, can be used in the methods of this invention; they express multiple genes of Tables 4 and/or 5, and the expression of these genes following contact with a candidate compound can be measured. […] DAN cells are sensitive to the neurotoxin MPP^+.
as §1, §2

“Also recorded” adds a separate entry of the source. Ends that are not written are not given here.

For the compound “cholecysokinin-8 (DYMGWMDF; ends and bridges not checked; UniProt P06307 96-103, looked up) [CCK-8, neuropeptide elevated in A10 dopaminergic neurons]”, in the series with PC12-αSyn cells, the “LDH release (cell death) induced by MPP+ toxicity; neuroprotective effect” value (“LDH release … neuroprotective effect” below) was “Significant dose-dependent reductions in LDH release; also recorded: dose-dependent neuroprotective effects”.
Turning to `NCCc1cc(O)c(O)cc1O` [6-OHDA, 6-hydroxydopamine], the “loss of dopaminergic fibers in the striatum and neuronal cell bodies in the substantia nigra” value in series [1] is reported as “progressive degeneration of dopaminergic neuronal cell bodies”.
Consider “calcitonin/calcitonin gene-related peptide alpha [CGRP]”, for which the “LDH release … neuroprotective effect” value in the series with PC12-αSyn cells is given as “Significant dose-dependent reductions in LDH release; also recorded: dose-dependent neuroprotective effects”.
As to `COC(=O)C[C@H](NC(=O)OC(C)(C)C)C(=O)CF` [BAF, reference compound], the “MPP+ susceptibility (LDH release) after pretreatment with neuroprotective agent” value in the series with PC12-αSyn cells (PC12-αSyn cells pretreated) is on record as “significantly decreased”.
For the compound `C[n+]1ccc(-c2ccccc2)cc1` [MPP^+, 1-methyl-4-phenylpyridinium, reference compound], in the series with PC12-αSyn cells (intermediate concentration (2.5 mM) of MPP+), the “LDH release in PC12-αSyn cells compared with naive PC12 cells” value was “significantly higher LDH release”. Besides, the “vulnerability of TH-positive/GIRK2-positive versus TH-positive/GIRK2-negative cells” value in series [2] (primary VM culture, MPP+ 0.1 to 10 μM at day 5 for 48 hours) is on record as “more vulnerable”. Besides, in the series on DAN cells (DAN cells), the “dose of MPP+ giving maximal toxic insult (LDH release)” value turned out to be 2.5 mM.
“Vasoactive intestinal peptide (HSDAVFTDNYTRLRKQMAVKKYLNSILN; ends and bridges not checked; UniProt P01282 125-152, looked up) [VIP, neuropeptide elevated in A10 dopaminergic neurons]”: in the series with PC12-αSyn cells, the “LDH release … neuroprotective effect” value is “Significant dose-dependent reductions in LDH release; also recorded: dose-dependent neuroprotective effects”. In addition, the “neuroprotective effect in primary VM culture (TH and GIRK2 immunostaining)” value in series [2] (48 hours after 10 μM MPP+, 10^−6 M VIP) is “neuroprotective effect”. Also, the “protective effect against MPP+ toxicity on GIRK2-positive/TH-positive neurons” value (from here on “protective effect against MPP+ toxicity”) in series [2] (primary VM culture) is “significant protective effect”.
In the case of “NT-3: neurotrophic factor known to have elevated expression in A10 dopaminergic neurons”, in the series on PC12-αSyn cells, the “LDH release … neuroprotective effect” value is on record as “Significant dose-dependent reductions in LDH release; also recorded: able to protect PC12-α-Syn cells from MPP^+ neurotoxicity in a dose-dependent manner”. The “protective effect against MPP+ toxicity” value in series [2] (primary VM culture) is “significant protective effect”. The “survival of TH and TH/GIRK2 double-labeled neurons against MPP+ toxicity” value in series [2] (primary VMDA culture, NT3 at 17 ng/ml, MPP+ 10 μM) was “protects the cells against MPP^+ toxicity”. The “LDH release (cell death) in MPP+ treated DAN cells” value in the series with DAN cells is given as “significant dose-dependent reduction in LDH release”; with DAN cells (listed as NT3), “protective effect”.
Consider Fibroblast growth factor 1 [FGF1], for which the “LDH release (cell death) induced by MPP+ toxicity; protection by FGF1” value in the series with PC12-αSyn cells (PC12-αSyn cells, FIG. 2D) was “significantly reduced; also recorded: able to protect PC12-αSyn cells from MPP^+ in a dose-dependent manner”.
For “gastrin releasing peptide (VPLPAGGGTVLTKMYPRGNHWAVGHLM; ends and bridges not checked; UniProt P07492 24-50, looked up) [GRP, neuropeptide elevated in A10 dopaminergic neurons]”, in the series on PC12-αSyn cells, the “LDH release … neuroprotective effect” value is recorded as “Significant dose-dependent reductions in LDH release; also recorded: dose-dependent neuroprotective effects”. In addition, in series [2] (primary VM culture), the “protective effect against MPP+ toxicity” value is given as “significant protective effect”.
